The values that follow come from patent US10407447B2, “Pantothenate derivatives for the treatment of neurological disorders” (Retrophin, Inc., priority 2013, dated 2019).

Assay [1] concerns PANK2 silenced cells (IMR32 Human Neuroblastoma Cells). The assay is described as follows: Neuroblastoma cell assay: CoASH by LC-MS/MS in PANK2 silenced cells. Format: cell-based. Conditions: 50 μM, treatment repeated after 24 hours, further 24 hours; free CoASH by LC-MS/MS. Here is the method:
The compounds described herein may be tested in PANK2 silenced cells (IMR32 Human Neuroblastoma Cells). The amount of CoASH following administration of the compounds is measured by LC-MS/MS.
Human neuroblastoma IMR32 cells (ATCC) were cultured in MEM (Invitrogen) supplemented with 10% fetal bovine serum, 2 mM glutamine, 1% penicillin-streptomycin, 1 mM sodium pyruvate, 1 mM non essential aminoacids and 1.5 g/l sodium bicarbonate.
Human Emryonic Kidney HEK-293T cells (ATCC) were cultured in DMEM supplemented with 10% fetal bovine serum, 1 mM glutamine, 1% penicillin-streptomycin.
The cells were maintained at 37° C. under 5% CO2.
Establishment of a PANK2−/− Cell Model
For lentiviral shRNA expression, Human Emryonic Kidney HEK-293T cells (ATCC) were transfected with the appropriate pGFP-Lenti-shRNA constructs and packaging plasmids according to manufacturer's protocol (Origene Technologies, Inc.). 4 different gene-specific shRNA expression vectors designed against multiple splice variants of PANK2 (Gene ID 80025) were used for transfection. A non-silencing shRNA construct (scrambled shRNA) and an empty vector expressing GFP alone were used as negative controls. The GFP tag subcloned into the lentiviral vectors was used to monitor the transfection efficiency.
IMR32 cells were plated on […] dishes 48 hrs before transduction with lentiviral particles.
Three days after transduction medium was removed and replaced with fresh medium containing […] puromycin. Medium was replaced every 48 hrs. Levels of PANK2 expression on selected clones was assessed by Western Blot analysis.
Cell-Based Assay on PANK2−/− Cells
Cells were plated on 6-well culture plates. After 72 hours, compounds were diluted in DMSO and added to the culture medium such that the final solvent concentration was 0.1% (v/v). […] Before analysis of Coenzyme A levels, cells were harvested, counted and collected in a 15 ml falcon tube and centrifuged at 200×g for 5 min at 4° C. […]
Results are expressed as fold increase in CoA levels (LCMS quantification of free CoASH as described in above).

The next assay deals with Pank1−/− mice. The assay is described as follows: In vivo testing: liver Coenzyme A levels in Pank1−/− mice. Also noted: species or system mouse. The note with it: liver CoA in treated Pank1−/− mice as percentage of untreated Pank1−/− mice; intraperitoneal 1.2 μmoles/g body weight once daily for 5 days, fasted overnight. The protocol:
Compounds of the invention were tested for efficacy in Pank1^−/− mice (strain 129SvJ×C57BL/6J background), which were compared with age-matched Pank1^+/+ (strain 129SvJ×C57BL/6J) littermates, ages 8-12 weeks. Each mouse was identified with a coded ear tag and weighed on the first day of testing. Each compound was administered to 4-5 mice by intraperitoneal injection at a dose of 1.2 μmoles/g body weight in 5 μL dimethylsulfoxide once daily for 5 days, and mice were then fasted overnight, weighed, and euthanized. Untreated mice received 5 μL dimethylsulfoxide once daily for 5 days and then were fasted overnight prior to weighing and euthanasia. Livers were excised from each mouse, aliquots were snap-frozen in liquid nitrogen, and stored at −80° C. Within 7 days, liver samples were thawed on ice, weighed, and analyzed for Coenzyme A content as described below. Efficacy was indicated by a statistically significant increase in the liver Coenzyme A levels in the Pank1^−/− mice as compared to the liver from untreated Pank1^−/− mice and by equivalence in comparison with Coenzyme A levels in untreated Pank1^+/+ mice.
CoA Measurements: Extraction of Fibroblasts and Liver and Derivatization of Coenzyme A Prior to High Pressure Liquid Chromatography (HPLC) […]
Coenzyme A Quantification by HPLC […]

As for `COC(=O)[C@H](C)NP(=O)(OCC(C)(C)[C@@H](O)C(=O)NCCC(=O)OCc1ccccc1)Oc1ccccc1` (stereo partly drawn) [Compound 22, Benzyl 3-((2R)-2-hydroxy-4-(((((S)-1-methoxy-1-oxopropan-2-yl)amino)(phenoxy)phosphoryl)oxy)-3,3-dimethylbutanamido)propanoate], the “CoA levels (fold over vehicle treated PANK2−/− cells)” value in assay [1] was determined as 1.1 fold. Further, in the assay with Pank1−/− mice, the “CoA (% KO)” value amounted to 400 % KO.
For the compound `COC(=O)CCNC(=O)[C@H](O)C(C)(C)COP(=O)(N[C@@H](C)C(=O)OCc1ccccc1)Oc1ccccc1` (stereo partly drawn) [Compound 24, Benzyl (((R)-3-hydroxy-4-((3-methoxy-3-oxopropyl)amino)-2,2-dimethyl-4-oxobutoxy)(phenoxy)phosphoryl)-L-alaninate], in assay [1], the “CoA levels (fold over vehicle treated PANK2−/− cells)” value was 1.7 fold.
On to `COC(=O)CCNC(=O)[C@H](O)C(C)(C)COP(=O)(N[C@@H](Cc1ccccc1)C(=O)OCc1ccccc1)Oc1ccccc1` (stereo partly drawn) [Compound 27, Benzyl (((R)-3-hydroxy-4-((3-methoxy-3-oxopropyl)amino)-2,2-dimethyl-4-oxobutoxy)(phenoxy)phosphoryl)-L-phenylalaninate], for which the “CoA levels (fold over vehicle treated PANK2−/− cells)” value in assay [1] was found to be 1.3 fold. Moreover, the “CoA (% KO)” value with Pank1−/− mice was 1837 % KO.
